SMILES strings stand for the structures.

For assay [1], the target named is T1, G12C-mutant human KRAS (amino acid residues 1-188) (Homo sapiens, UniProt P01116, G12C).
T1 construct: G12D or G12C-mutant human KRAS (amino acid residues 1-188) with FLAG tag; made in house; host or cells: E. coli
In words: KRAS Binding Disruption Assay (AlphaScreen; biotinylated KRpep-2d analogue or RAF1-RBD), G12C. The following applies: geometric mean, read-out: KRAS GMean IC50 (uM) MUTATION: G12C. How it is done: Compound binding disrupts the interaction of KRpep-2d or RAF1-RBD with KRAS, leading to a decrease in Alpha signal.
All assay components were prepared in 20 mM HEPES (pH 7.5), 100 mM NaCl, 5 mM MgCl2, 0.01% Tween-20, and 0.01% BSA. Biotinylated analogues of KRpep-2d were custom synthesized. The binding disruption assays were performed using 5-20 nM of mutant KRAS and 5-20 nM of either biotinylated KRpep-2d analogue or RAF1-RBD. 19 μL of KRAS protein and 4 μL of biotinylated KRpep-2d or RAF1-RBD were added to the wells of a 384-well plate containing 1 μL of various concentrations of test compound or DMSO vehicle. 16 wells containing KRAS, biotinylated KRpep-2d or RAF1-RBD, and 5% DMSO served as high controls. 16 wells containing KRAS only and 5% DMSO served as low controls. Binding reactions were incubated for 1 hour at 25° C., then Anti-Flag Acceptor and Streptavidin Donor Alpha beads were added at a final concentration of 10 μg/mL for an additional hour at room temperature. Alpha signal was read out on a Perkin Elmer Envision HTS instrument. The percentage inhibition at individual compound concentrations relative to high and low controls was calculated. The data were analyzed by using nonlinear regression to generate IC50 values.

In assay [2] the target is T2, G12D-mutant human KRAS (amino acid residues 1-188) (Homo sapiens, UniProt P01116, G12D).
T2 construct: G12D or G12C-mutant human KRAS (amino acid residues 1-188) with FLAG tag; made in house; host or cells: E. coli
T2 sequence (P01116 1-188 isoform P01116-2 G12D): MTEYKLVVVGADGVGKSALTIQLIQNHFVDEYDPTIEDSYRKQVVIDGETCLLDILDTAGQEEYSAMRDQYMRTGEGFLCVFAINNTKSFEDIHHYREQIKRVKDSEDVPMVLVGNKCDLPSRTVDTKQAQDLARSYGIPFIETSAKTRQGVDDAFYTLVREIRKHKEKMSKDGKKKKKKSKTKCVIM
Put plainly: KRAS Binding Disruption Assay (AlphaScreen; biotinylated KRpep-2d analogue or RAF1-RBD), G12D. The following applies: KRAS G12D; geometric mean; read-out: KRAS GMean IC50 (uM) MUTATION: G12D. Put shortly:
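AlphaScreen readout: signal falls as compound displaces biotinylated KRpep-2d analogue or RAF1-RBD from mutant KRAS. Both partners at 5-20 nM, 1 h binding at 25° C, then 10 μg/mL Anti-Flag acceptor and streptavidin donor beads for 1 h. IC50 by nonlinear regression of % inhibition.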
A general note: Bead proximity is the source of the signal in Alpha formats.

T1 sequence (P01116 1-188 isoform P01116-2 G12C): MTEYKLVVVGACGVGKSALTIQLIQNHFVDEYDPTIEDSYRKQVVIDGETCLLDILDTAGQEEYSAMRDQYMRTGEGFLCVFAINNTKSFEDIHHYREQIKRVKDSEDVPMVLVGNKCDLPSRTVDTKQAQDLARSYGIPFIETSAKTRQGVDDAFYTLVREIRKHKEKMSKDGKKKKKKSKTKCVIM

One may read the IC50 as the concentration that inhibits the measured activity by half. As to `CN1C[C@H](O)C[C@H]1COc1nc(N2C[C@H]3CC[C@@H](C2)N3)c2ccc(-c3cc(O)cc4ccccc34)c(F)c2n1` [P-0659, (3R,5S)-5-(((4-((1R,5S)-3,8-diazabicyclo[3.2.1]octan-3-yl)-8-fluoro-7-(3-hydroxynaphthalen-1-yl)quinazolin-2-yl)oxy)methyl)-1-methylpyrrolidin-3-ol], the half-maximal inhibitory concentration (IC50) in assay [1] and in assay [2] was 0.0001 to 10 µM each time.

With `NC(=O)N1[C@@H]2CC[C@H]1CN(c1nc(OCC34CCCN3CCC4)nc3c(F)c(-c4cc(O)cc5ccccc45)ccc13)C2` [P-0660, (1R,5S)-3-(8-fluoro-7-(3-hydroxynaphthalen-1-yl)-2-((tetrahydro-1H-pyrrolizin-7a(5H)-yl)methoxy)quinazolin-4-yl)-3,8-diazabicyclo[3.2.1]octane-8-carboxamide], the half-maximal inhibitory concentration (IC50) in assay [1] and in assay [2] was 0.0001 to 10 µM in each case.

Regarding `NS(=O)(=O)N1[C@@H]2CC[C@H]1CN(c1nc(OCC34CCCN3CCC4)nc3c(F)c(-c4cc(O)cc5ccccc45)ccc13)C2` [P-0662, (1R,5S)-3-(8-fluoro-7-(3-hydroxynaphthalen-1-yl)-2-((tetrahydro-1H-pyrrolizin-7a(5H)-yl)methoxy)quinazolin-4-yl)-3,8-diazabicyclo[3.2.1]octane-8-sulfonamide], the IC50 in assay [1] and in assay [2] was 0.0001 to 10 µM throughout.

On to `CN1CCC[C@H]1COc1nc(N2C[C@H]3CC[C@@H](C2)N3S(N)(=O)=O)c2ccc(-c3cc(O)cc4ccccc34)c(F)c2n1` [P-0663, (1R,5S)-3-(8-fluoro-7-(3-hydroxynaphthalen-1-yl)-2-(((S)-1-methylpyrrolidin-2-yl)methoxy)quinazolin-4-yl)-3,8-diazabicyclo[3.2.1]octane-8-sulfonamide], for which the IC50 in assay [1] and in assay [2] was 0.0001 to 10 µM in each case.

For the compound `N#Cc1cccc2[nH]cc(-c3ccc4c(N5C[C@H]6CC[C@@H](C5)N6)nc(OCC56CCCN5CCC6)nc4c3F)c12` [P-0666, 3-(4-((1R,5S)-3,8-diazabicyclo[3.2.1]octan-3-yl)-8-fluoro-2-((tetrahydro-1H-pyrrolizin-7a(5H)-yl)methoxy)quinazolin-7-yl)-1H-indole-4-carbonitrile], the IC50 in assay [1] and in assay [2] was 0.0001 to 10 µM throughout.

Consider `CCN1CCC[C@H]1COc1nc(N2C[C@H]3CC[C@@H](C2)N3)c2ccc(-c3cc(O)cc4ccccc34)c(F)c2n1` [P-0667, 4-(4-((1R,5S)-3,8-diazabicyclo[3.2.1]octan-3-yl)-2-(((S)-1-ethylpyrrolidin-2-yl)methoxy)-8-fluoroquinazolin-7-yl)naphthalen-2-ol], for which the IC50 in assay [1] and in assay [2] was 0.0001 to 10 µM each time.

On to `Oc1cc(-c2ccc3c(N4C[C@H]5CC[C@@H](C4)N5)nc(CNC4CC(O)C4)nc3c2)c2ccccc2c1` (stereo partly drawn) [P-0670, 4-(4-((1R,5S)-3,8-diazabicyclo[3.2.1]octan-3-yl)-2-(((3-hydroxycyclobutyl)amino)methyl)quin-azolin-7-yl)naphthalen-2-ol], for which the IC50 in assay [1] fell in the range of 100 to 1000 µM; in assay [2] it was 0.0001 to 10 µM.

On to `Oc1cc(-c2ccc3c(N4C[C@H]5CC[C@@H](C4)N5)nc(CN[C@H]4CCOC4)nc3c2)c2ccccc2c1` [P-0671, 4-(4-((1R,5S)-3,8-diazabicyclo[3.2.1]octan-3-yl)-2-((((S)-tetrahydrofuran-3-yl)amino)methyl)quinazolin-7-yl)naphthalen-2-ol], for which the concentration for half-maximal inhibition (IC50) in assay [1] was 10 to 100 µM; in assay [2] it was 0.0001 to 10 µM.

For the compound `Oc1cc(-c2ccc3c(N4CC5CCC(C4)N5)nc(CN[C@@H]4CCC[C@H]4O)nc3c2)c2ccccc2c1` [P-0672, 4-(4-((1R,5S)-3,8-diazabicyclo[3.2.1]octan-3-yl)-2-((((1R,2R)-2-hydroxycyclopentyl)amino)methyl)quin-azolin-7-yl)naphthalen-2-ol], the results for the IC50 in assay [1] and in assay [2] were 10 to 100 µM and 0.0001 to 10 µM, respectively.

Regarding `Oc1cc(-c2ccc3c(N4C[C@H]5CC[C@@H](C4)N5)nc(CNC4CC4)nc3c2)c2ccccc2c1` [P-0673, 4-(4-((1R,5S)-3,8-diazabicyclo[3.2.1]octan-3-yl)-2-((cyclopropylamino)methyl)quinazolin-7-yl)naphthalen-2-ol], the figures for the IC50 in assay [1] and in assay [2] were 10 to 100 µM and 0.0001 to 10 µM, respectively.

As for `NCCCN1CCC[C@H]1COc1nc(N2C[C@H]3CC[C@@H](C2)N3)c2ccc(-c3cc(O)cc4ccccc34)c(F)c2n1` [P-0675, 4-(2-(((S)-1-(3-aminopropyl)pyrrolidin-2-yl)methoxy)-4-((1R,5S)-3,8-diazabicyclo[3.2.1]octan-3-yl)-8-fluoroquinazolin-7-yl)naphthalen-2-ol], the IC50 in assay [1] and in assay [2] was 0.0001 to 10 µM throughout.

Regarding `O=C(NCCCN1CCC[C@H]1COc1nc(N2C[C@H]3CC[C@@H](C2)N3)c2ccc(-c3cc(O)cc4ccccc34)c(F)c2n1)OCc1ccccc1` [P-0676, benzyl (3-((S)-2-(((4-((1R,5S)-3,8-diazabicyclo[3.2.1]octan-3-yl)-8-fluoro-7-(3-hydroxynaphthalen-1-yl)quinazolin-2-yl)oxy)methyl)pyrrolidin-1-yl)propyl)carbamate], the IC50 in assay [1] was 10 to 100 µM; in assay [2] it was 0.0001 to 10 µM.

Take `O=C(OCc1ccccc1)N1CCC[C@H]1COc1nc(N2C[C@H]3CC[C@@H](C2)N3)c2ccc(-c3cc(O)cc4ccccc34)c(F)c2n1` [P-0677, benzyl (S)-2-(((4-((1R,5S)-3,8-diazabicyclo[3.2.1]octan-3-yl)-8-fluoro-7-(3-hydroxynaphthalen-1-yl)quinazolin-2-yl)oxy)methyl)pyrrolidine-1-carboxylate]: the IC50 was 10 to 100 µM in assay [1] and 0.0001 to 10 µM in assay [2].

With `Fc1ccc2[nH]cc(-c3ccc4c(N5C[C@H]6CC[C@@H](C5)N6)nc(OCC56CCCN5CCC6)nc4c3F)c2c1Cl` [P-0678, 4-((1R,5S)-3,8-diazabicyclo[3.2.1]octan-3-yl)-7-(4-chloro-5-fluoro-1H-indol-3-yl)-8-fluoro-2-((tetrahydro-1H-pyrrolizin-7a(5H)-yl)methoxy)quinazoline], the IC50 in assay [1] and in assay [2] was 0.0001 to 10 µM in each case.

On to `Fc1cc2c(N3C[C@H]4CC[C@@H](C3)N4)nc(OCC34CCCN3CCC4)nc2c(F)c1-c1c[nH]c2ccc(F)c(Cl)c12` [P-0679, 4-((1R,5S)-3,8-diazabicyclo[3.2.1]octan-3-yl)-7-(4-chloro-5-fluoro-1H-indol-3-yl)-6,8-difluoro-2-((tetrahydro-1H-pyrrolizin-7a(5H)-yl)methoxy)quinazoline], for which the IC50 in assay [1] and in assay [2] was 0.0001 to 10 µM in each case.

Consider `O=C1CCC2(CN(c3nc(N4C[C@H]5CC[C@@H](C4)N5)c4ccc(-c5cc(O)cc6ccccc56)c(F)c4n3)C2)N1` [P-0680, 2-(4-((1R,5S)-3,8-diazabicyclo[3.2.1]octan-3-yl)-8-fluoro-7-(3-hydroxynaphthalen-1-yl)quinazolin-2-yl)-2,5-diazaspiro[3.4]octan-6-one], for which the IC50 in assay [1] lay within 100 to 1000 µM; in assay [2] it was 0.0001 to 10 µM.

For `Oc1cc(-c2ccc3c(N4C[C@H]5CC[C@@H](C4)N5)nc(NCC4(O)CCC4)nc3c2F)c2ccccc2c1` [P-0681, 4-(4-((1R,5S)-3,8-diazabicyclo[3.2.1]octan-3-yl)-8-fluoro-2-(((1-hydroxycyclobutyl)methyl)amino)quin-azolin-7-yl)naphthalen-2-ol], the IC50 was 100 to 1000 µM in assay [1] and 0.0001 to 10 µM in assay [2].

Regarding `Oc1cc(-c2ccc3c(N4C[C@H]5CC[C@@H](C4)N5)nc(N4CC5(CCCN5)C4)nc3c2F)c2ccccc2c1` [P-0682, 4-(4-((1R,5S)-3,8-diazabicyclo[3.2.1]octan-3-yl)-8-fluoro-2-(2,5-diazaspiro[3.4]octan-2-yl)quinazolin-7-yl)naphthalen-2-ol], the IC50 was in the range of 10 to 100 µM in assay [1] and 0.0001 to 10 µM in assay [2].

`CC(C)(O)C1CN(c2nc(N3C[C@H]4CC[C@@H](C3)N4)c3ccc(-c4cc(O)cc5ccccc45)c(F)c3n2)C1` [P-0683, 4-(4-((1R,5S)-3,8-diazabicyclo[3.2.1]octan-3-yl)-8-fluoro-2-(3-(2-hydroxypropan-2-yl)azetidin-1-yl)quinazolin-7-yl)naphthalen-2-ol]: the IC50 fell in the range of 100 to 1000 µM in assay [1] and 0.0001 to 10 µM in assay [2].

With `CN1CCN(c2nc(N3C[C@H]4CC[C@@H](C3)N4)c3ccc(-c4cc(O)cc5ccccc45)c(F)c3n2)CC1` [P-0684, 4-(4-((1R,5S)-3,8-diazabicyclo[3.2.1]octan-3-yl)-8-fluoro-2-(4-methylpiperazin-1-yl)quinazolin-7-yl)naphthalen-2-ol], the IC50 in assay [1] lay in the range of 100 to 1000 µM; in assay [2], 0.0001 to 10 µM.

As to `Oc1cc(-c2ccc3c(N4C[C@H]5CC[C@@H](C4)N5)nc(N4C[C@@H](O)[C@H](O)C4)nc3c2F)c2ccccc2c1` [P-0685, (3R,4R)-1-(4-((1R,5S)-3,8-diazabicyclo[3.2.1]octan-3-yl)-8-fluoro-7-(3-hydroxynaphthalen-1-yl)quinazolin-2-yl)pyrrolidine-3,4-diol], the IC50 in assay [1] fell in the range of 10 to 100 µM; in assay [2], 0.0001 to 10 µM.

Source of the values: patent US20230081426A1, “COMPOUNDS AND METHODS FOR KRAS MODULATION AND INDICATIONS THEREFOR” (Plexxikon Inc., priority 2020, published 2023).
